Assay results: paper PMC11111691, “Cystine-knot peptide inhibitors of HTRA1 bind to a cryptic pocket within the active site region” (Nature Communications, 2024)
Residue numbers refer to the chain shown, from its start. Positions of bridges follow the written chain, without caps; N, C: chain ends. Residues, ends and D or L forms follow the SMILES beside them.

Assays:
Assay type in all cases: biochemical
HTRA4^PD/PDZ-Y200A = biological target: T1, HTRA4^PD/PDZ-Y200A (Homo sapiens, UniProt P83105, Y200A); assay: H2-OPT enzyme assay, chimeric HTRA4^PD/PDZ-Y200A; details: 1 µM HTRA4^PD/PDZ-Y200A, 10 µM 3B3, H2-OPT; read-out: Inhibition (reduction of enzyme activity) of HTRA4^PD/PDZ-Y200A
T1 construct: HTRA4 (HTRA4^PD/PDZ; G153-N476); made in house; host or cells: E. coli
T1 sequence (P83105 153-476 Y200A): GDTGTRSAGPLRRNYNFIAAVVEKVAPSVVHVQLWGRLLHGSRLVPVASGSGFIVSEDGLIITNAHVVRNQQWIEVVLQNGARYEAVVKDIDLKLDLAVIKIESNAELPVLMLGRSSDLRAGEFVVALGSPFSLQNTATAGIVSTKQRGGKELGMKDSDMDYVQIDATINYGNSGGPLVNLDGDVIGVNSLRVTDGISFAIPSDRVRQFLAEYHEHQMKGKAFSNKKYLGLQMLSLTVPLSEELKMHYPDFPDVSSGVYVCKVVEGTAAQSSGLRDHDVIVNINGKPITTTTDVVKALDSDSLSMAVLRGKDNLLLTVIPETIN
Text: The protease domains of human HTRA1 (HTRA1^PD; D161-K379) and mouse HTRA1 (mHTRA1^PD; D161-K379) contained an N-terminal His6 tag followed by a TEV protease cleavage sequence as described recently. The chimeric HTRA1^PD-A202Y was made by introducing an A202Y mutation to the human HTRA1^PD construct. […] The protease-PDZ domains of human HTRA3 (HTRA3^PD/PDZ; L130-M453) and HTRA4 (HTRA4^PD/PDZ; G153-N476) contained a C-terminal thrombin cleavage sequence followed by a His6 tag[44]. The chimeric HTRA4^PD/PDZ-Y200A was made by introducing a Y200A mutation to the HTRA4^PD/PDZ construct. These constructs were expressed in E. coli and purified as described[38],[44],[47]. […] The purity of the trimeric HTRA proteins after size exclusion chromatography was assessed by SDS-PAGE and LC/MS. […]
Assays with the fluorescence-quenched synthetic substrate Mca-IRRVSYSFK(Dnp)K (H2-OPT)[38],[60] were carried out essentially as described. […] The kinetics of substrate cleavage was measured at 37 °C on a SpectraMax M5 microplate reader with excitation of 328 nm and emission of 393 nm. The determined initial rates of cleavage were expressed as percent of control (DMSO control) after subtracting the baseline rates (without enzyme). IC50 values were determined by Sigmoidal 4PL modeling of multiple data points from serial dilutions of CKPs using Prism 9 software (GraphPad). […]

HTRA4^PD/PDZ, HTRA4^FL [1] = biological target: T2, HTRA4^PD/PDZ, HTRA4^FL (Homo sapiens, UniProt P83105); assay: H2-OPT selectivity assay, HTRA4; details: 6 nM HTRA4^FL, 2 µM CKP (0.5 mM 7mer-ABP)
T2 construct: purchased Abcam (FL form); the PD/PDZ form was made in house in E. coli ab134444
T2 sequence (P83105 32-476): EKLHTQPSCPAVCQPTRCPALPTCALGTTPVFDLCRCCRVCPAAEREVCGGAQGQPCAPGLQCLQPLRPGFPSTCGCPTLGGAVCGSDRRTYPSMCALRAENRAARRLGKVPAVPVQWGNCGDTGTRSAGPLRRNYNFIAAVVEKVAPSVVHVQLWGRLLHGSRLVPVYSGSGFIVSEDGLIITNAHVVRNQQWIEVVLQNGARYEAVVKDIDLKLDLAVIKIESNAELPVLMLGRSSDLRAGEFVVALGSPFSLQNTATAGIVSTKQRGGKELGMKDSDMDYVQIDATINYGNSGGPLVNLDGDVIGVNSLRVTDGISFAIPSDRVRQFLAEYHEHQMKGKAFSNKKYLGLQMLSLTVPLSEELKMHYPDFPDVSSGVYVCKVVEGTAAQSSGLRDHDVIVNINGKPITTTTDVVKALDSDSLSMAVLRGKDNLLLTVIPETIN
Experimental: (§1) Assays with the fluorescence-quenched synthetic substrate Mca-IRRVSYSFK(Dnp)K (H2-OPT)[38],[60] were carried out essentially as described. CKP stock solutions in DMSO were diluted in TNC buffer (dilution series for IC50 determinations, or final concentration of 2 µM for selectivity assay or as indicated for HTRA1/4 mutants) and incubated with enzymes in 96-well black optical bottom plates for 60 min at 37 °C. For selectivity experiments we used the 7mer-ABP as inhibitor, which was incubated with the proteases for 15 min at 37 °C. A 10 mM stock solution of H2-OPT in DMSO was diluted with water, prewarmed at 37 °C and then added to the CKP-enzyme mixtures. The final concentrations in the reaction mixtures were: 1 nM HTRA1^FL, 3 nM HTRA1^PD/PDZ, 1 nM HTRA1^PD, 1 nM HTRA2^PD/PDZ, 3 nM HTRA3^FL, 60 nM HTRA3^PD/PDZ, 6 nM HTRA4^FL, 1 µM HTRA4^PD/PDZ, 1 nM mouse HTRA1^PD, 25 nM HTRA1^PD-A202Y, 1 µM HTRA4^PD/PDZ-Y200A, 0.5 mM 7mer-ABP, 5 µM H2-OPT, and 0.25% DMSO. The kinetics of substrate cleavage was measured at 37 °C on a SpectraMax M5 microplate reader with excitation of 328 nm and emission of 393 nm. The determined initial rates of cleavage were expressed as percent of control (DMSO control) after subtracting the baseline rates (without enzyme). IC50 values were determined by Sigmoidal 4PL modeling of multiple data points from serial dilutions of CKPs using Prism 9 software (GraphPad). For selectivity assays with HTRA1-4^PD/PDZ constructs, the specific activities of the enzymes and enzyme:CKP inhibitor ratios were as follows: HTRA1^PD/PDZ, 12560 mRFU/min/nM – 1:667; HTRA2^PD/PDZ, 32300 mRFU/min/nM – 1:2000; HTRA3^PD/PDZ, 962 mRFU/min/nM – 1:33; HTRA4^PD/PDZ, 18 mRFU/min/nM – 1:2.

HTRA4^PD/PDZ, HTRA4^FL [2] = biological target: T3, HTRA4^PD/PDZ, HTRA4^FL (Homo sapiens, UniProt P83105); assay: H2-OPT selectivity assay, HTRA4; details: 1 µM HTRA4^PD/PDZ, 2 µM CKP (0.5 mM 7mer-ABP), 5 µM H2-OPT
T3 construct: purchased Abcam (FL form); the PD/PDZ form was made in house in E. coli ab134444
T3 sequence (P83105 153-476): T1 sequence (P83105 153-476 Y200A) with A48Y
Experimental: as §1

Row | Molecule | inhibition at 10 µM (HTRA4^PD/PDZ-Y200A) | Inhibition of HTRA4^FL, H2-OPT (% of control) (HTRA4^PD/PDZ, HTRA4^FL [1]) | Inhibition of HTRA4^PD/PDZ, H2-OPT (% of control) (HTRA4^PD/PDZ, HTRA4^FL [2])
1 | CC[C@H](C)[C@H](NC(=O)[C@@H]1CCCN1C(=O)[C@H](CC(=O)O)NC(=O)[C@H](C)NC(=O)[C@@H](N)Cc1c[nH]cn1)C(=O)N[C@H]1CSSC[C@@H]2NC(=O)[C@H](Cc3ccccc3)NC(=O)[C@H](Cc3c[nH]c4ccccc34)NC(=O)[C@H](C)NC(=O)CNC(=O)[C@H](CO)NC(=O)[C@@H]3CSSC[C@@H](C(=O)NCC(=O)N4CCC[C@H]4C(=O)N[C@@H](Cc4ccc(O)cc4)C(=O)N[C@H](C(=O)NCC(N)=O)C(C)C)NC(=O)[C@H](CO)NC(=O)[C@H](Cc4c[nH]c5ccccc45)NC(=O)[C@H]([C@@H](C)O)NC(=O)[C@H](C)NC(=O)[C@H](Cc4ccc(O)cc4)NC(=O)[C@H](Cc4ccc(O)cc4)NC(=O)[C@H](CSSC[C@H](NC(=O)[C@@H]4CCCN4C(=O)[C@H](CCCCN)NC(=O)[C@H](CC(N)=O)NC1=O)C(=O)N[C@@H](CCCCN)C(=O)N[C@@H]([C@@H](C)O)C(=O)N[C@@H](Cc1c[nH]cn1)C(=O)N[C@@H](CC(=O)O)C(=O)N[C@@H](CC(=O)O)C(=O)N3)NC(=O)[C@H](C)NC(=O)[C@H](CCC(N)=O)NC2=O [3B3] (H-HADPICNKPCKTHDDCSGAWFCQACYYATWSCGPYVG-NH2; disulfide 6-22, 10-25, 16-32) | 57% |  | 
2 | DPMFKLV-phosphonate [7mer-ABP] |  | significantly inhibited | significantly inhibited
